Assay results published in US20250170252A1, “QUINONE PROTECTED FORMS AND CONJUGATES” (CAMBRIDGE ENTERPRISE LIMITED, priority 2022, published 2025).
Like-named read-outs stand apart in the source and are kept apart here.

Columns and labels:
[1] = pH-rate aqueous kinetic analysis of fragmentation (para-aminobenzyl ketols); format: physicochemical; conditions: for pH at which elimination rate peaks / half-life at 0.155 mM: citrate-phosphate buffer; for half-life at 0.155 mM: pH 7, pH 7, read-out: release t1/2 (converted)
Experimental: pH-rate analysis was performed by adaption of the PenG assay. To obtain deprotected para-aminobenzyl ketol species, 2-phenylacetyl protected ketol was dissolved in PBS with 33% DMF to a concentration of 3.3 mM. 20 μL of a stock solution of PenG was added to 600 μL of this stock and incubated for 20 min at 37° C. 20 μL of a 100 mM stock of internal standard in DMSO was added. Reactions were then set up immediately. For a reaction, 10 μL of the amino-benzyl ketol/standard stock was added to 190 μL of citrate-phosphate buffer at the specified pH to obtain an aqueous solution containing 1.8% DMSO. Test samples were incubated at 37° C. with shaking. At the recorded time points, 20 μL aliquots of the reactions were analysed by HPLC (254 nm, ThermoFisher U3000). HPLC conditions: column Phenomenex Kinetex C18 5 μm, 50×4.6 mm, 100 Å; solvent system A=H2O, B=acetonitrile; flow=1 mL/min. Gradient and solvent system for assay with PAB-PhQ 7: A=H2O, B=acetonitrile, t=0-1 min 0% B, t=1-10 min 0-100% B, t=10-11 min 0% B. Gradient and solvent system for assay with PAB-BL 10 and PAB-DN 18: A=H2O+0.1% formic acid, B=acetonitrile+0.1% formic acid, t=0-1 min 0% B, t=1-10 min 0-40% B, t=10-16 min 40-50% B, t=16.1 min 100% B, t=16.1-18 min 100% B, t=18-20 min 0% B. Values described represent peak area (mAU*min) divided by peak area of internal standard. Where necessary, peaks were deconvoluted using Origin fitting software. Recorded values are averages of three independent reactions and error bars display standard error of the mean. Values were fitted using GraphPad Prism software. Rate and half-life measurements were calculated based on disappearance of the para-aminobenzyl ketol species.

[2] = Penicillin-G amidase mediated kinetic analysis of elimination at physiological pH; format: physicochemical; conditions: pH 7.4, 37° C.
Experimental: Stocks of 2-phenylacetyl-para-aminobenzyl ketol were made up in DMF at a concentration of 10 mM. For a reaction, 17.5 μL of ketol stock was added to 17.5 μL of a 10 mM stock of internal standard in DMF and 310 μL of PBS at pH 7.4. To initiate a reaction, 5 μL of a suspension of Penicillin-G amidase (PenG, Sigma Aldrich enzyme 76427, 5-10 U/mg) was added. In control samples 5 μL of PBS was added in place of the enzyme. Test and control samples were then incubated at 37° C. with shaking. At the recorded time points, 20 μL aliquots of the reactions were analysed by HPLC (254 nm, ThermoFisher U3000). HPLC column: Phenomenex Kinetex C18, 5 μm, 50×4.6 mm, 100 Å; flow=1 mL/min. Gradient and solvent system for assay with 2-phenylacetyl-PAB-PhQ 21: A=H2O, B=acetonitrile, t=0-1 min 0% B, t=1-10 min 0-100% B, t=10-11 min 0% B. Gradient and solvent system for assay with 2-phenylacetyl-PAB-BL 22 and 2-phenylacetyl-PAB-DN 23: A=H2O+0.1% formic acid, B=acetonitrile+0.1% formic acid, t=0-1 min 0% B, t=1-10 min 0-40% B, t=10-16 min 40-50% B, t=16.1 min 100% B, t=16.1-18 min 100% B, t=18-20 min 0% B. Peaks were identified by LCMS analysis and comparison with pure compounds. Values described represent peak area (mAU*min) divided by peak area of internal standard. Recorded values are averages of three independent reactions and error bars display standard error of the mean. Fitting was performed using GraphPad Prism 8 software. Rate and half-life measurements were calculated by consumption of intermediate para-aminobenzyl ketol and formation of product quinone.

[3] = 1H NMR kinetic analysis of elimination of PAB-PhQ; format: physicochemical; conditions: 25° C., moderately acidic methanolic solution
Experimental: Kinetics of the release of PhQ 4, from PAB-PhQ 7 were monitored by ^1H NMR at 25° C. Analysis was performed in MeOD due to poor solubility of the compound in H2O. To form the active eliminating species, Boc-PAB-PhQ 6 was dissolved in dichloromethane/trifluoroacetic acid 4:1 at 0° C. and stirred for 30 min, upon which the reaction appeared complete by thin-layer chromatography. Product 7 was dried in vacuo before being dissolved in MeOD. Basicity of the solution was altered by addition of triethylamine (drops). pH was estimated using pH paper. pH values are indicative only as analysis is performed in MeOD. Elimination rates were determined from the aromatic region. Kinetics were measured by monitoring the integral of one peak, normalised to number of protons present (i.e. integral of 1H), divided by the total integral of the aromatic region (δ=6.2-8.6 ppm, i.e. integral of 12H). Analysis was performed using Mestrenova 8.0 processing software and rate constants were calculated using GraphPad Prism v8.0 software.

[4] = tested on: MOLM-13; experiment: Viability assay with small molecule prodrugs, Trypan Blue exclusion, MOLM-13; format: cell-based; conditions: 5 μM, 24 h timepoint
Experimental: For assays assessing cytotoxicity of β-lapachone versus small molecule dipeptide prodrugs, suspension cells were plated into 24 well plates at a density of 2.5×10^5 cells/mL in 240 μL. Serial dilutions of compound were made up in PBS. 60 μL of each stock of either PBS, or compound in PBS was added to the cells to achieve the desired final concentration. After the specified incubation time, toxicity was assessed by counting of live cells using the Trypan Blue exclusion method with a Countess II Automated Cell Counter (ThermoFisher Scientific) according to the manufacturer's instructions. Cell viability was determined by division of average live cell number of treated wells by average live cell number for control wells treated with PBS only. Values recorded are the mean of three repeat wells, with error bars representing the standard error of the mean for each concentration tested. IC50 values were calculated using GraphPad Prism software.

[5] = Glucuronide kinetics assay (release of β-lapachone after β-glucuronide deprotection); format: physicochemical
Experimental: Glucuronide prodrug (37a, b, c, d) was dissolved in DMSO to a concentration of 10 mM. A 100 mM stock solution of warfarin in DMSO was also prepared. To obtain deprotected para-hydroxybenzyl ketol species, the glucuronide stock solution was dissolved in PBS with 16.7% DMF to a concentration of 1.7 mM. 15 μL of a stock solution of R-glucuronidase from E. coli K-12 (Roche #03707580001, 140 U/mL) was added to 900 μL of this stock and incubated for 20 min at 37° C. 15 μL of a 100 mM stock of warfarin internal standard in DMSO was added. Reactions were then set up immediately. For a reaction, 30 μL of the amino-benzyl ketol/standard stock was added to 195 μL of citrate-phosphate buffer at the specified pH. Test samples were incubated at 37° C. with shaking. At the recorded time points, 20 μL aliquots of the reactions were analysed by HPLC (254 nm, Agilent 1260 Infinity). HPLC conditions: column Agilent InfinityLab Poroshell 120 SB—C18 2.7 μm, 50×4.6 mm; solvent system A=H2O+0.1% TFA, B=acetonitrile+0.1% TFA; flow=1 mL/min. Gradient: t=0-1 min 0% B, t=1-2 min 0-30% B, t=2-17 min 30-40% B, t=17-17.1 min 40-100% B, t=17.1-18 min 100% B, t=18-23 min 0% B. Relative peak area represents raw peak area (mAU*s) normalized to raw peak area of the warfarin internal standard. Values recorded are averages of three independent reactions and error bars display standard error of the mean. Values were fitted to first-order kinetics using GraphPad Prism 9 software. A positive control experiment was performed under identical conditions with known substrate 4-nitrophenyl-β-D-glucuronide (Sigma Aldrich) to confirm enzyme activity.

[6] = tested on: Aspc-1 pancreatic cancer cell line; experiment: CellTiter Glo viability assay, Aspc-1; format: cell-based; conditions: for toxicity without the β-glucuronidase enzyme: Aspc-1, up to 100 μM; for IC50: Homo sapiens, ASPC1, 48 h
Experimental: (§1) For CellTiter Glo viability assays, 10,000 cells per well were plated on Day 1 and were allowed to adhere to the plate surface for 24 hours. Optimized concentration ranges of prodrugs were determined and made via serial dilution. […] Cells were incubated with compound for 48 hours and viability was assessed on Day 4 using the CellTiter Glo Viability assay which measures metabolically active cells by quantifying the amount of ATP present.
(§2) Panc-1 cells were obtained from Tony Kouzarides' lab in the Gurdon Institute at the University of Cambridge and put into culture at passage 10 containing DMEM media (Gibco) supplemented with 1% Pen-Strep antibiotic (Gibco), 1% L-glutamine, and 10% fetal bovine serum (FBS, sterile-filtered). Aspc-1 cells were bought commercially from the American Type Culture Collection (ATCC) and put into culture containing RPMI 1640 media (Gibco) supplemented with 1% Pen-Strep antibiotic (Gibco), 1% L-glutamine, and 20% fetal bovine serum (FBS, sterile-filtered). All cell lines were started at passage 10 and passaged every 3 days by centrifuging at 1000 rpm for 4 minutes.

[7] = tested on: Panc-1 pancreatic cancer cell line; experiment: CellTiter Glo viability assay, Panc-1; format: cell-based; conditions: for IC50: Homo sapiens, PANC-1, 48 h; for toxicity without the β-glucuronidase enzyme: Panc-1, up to 100 μM
Experimental: as §1, §2

In the case of “para-Aminobenzyl dunni-ketol [Compound 18]”, the “elimination rate compared with PAB-BL 10” value ([1]; 37° C., range of pH values) is reported as “very similar rate”.
For `CC1(C)CCC2=C(O1)c1ccccc1C(O)(Cc1ccc(N)cc1)C2=O` (centres unmarked) [Compound 10, 6-(4-aminobenzyl)-6-hydroxy-2,2-dimethyl-2,3,4,6-tetrahydro-5H-benzo[h]chromen-5-one], the “pH at which elimination rate peaks” value ([1]; 37° C.) was 3, the half-life at 0.155 mM ([1]; additional repeats of the experiments) was 542 days and the half-life at 0.155 mM ([1]; initially reported value) was 32.9 days. The release rate kobs ([1]; pH 7, initially reported value) was 2.4e-07 s⁻¹ and the “elimination resulting in formation of 1” value ([1]; pH≥6 within 72 h, 37° C.) was “Negligible elimination”.
With `Nc1ccc(CC2(O)C(=O)c3ccccc3-c3ccccc32)cc1` (centres unmarked) [Compound 7, 10-(4-aminobenzyl)-10-hydroxyphenanthren-9(10H)-one] the “pH at which elimination rate peaks” value ([1]; 37° C.) was 5-6, the “elimination of 7, rate kobs” value ([2]; intermediate 7 generated from 21) was 9.72 (±2.88)×10^−6 s^−1 and the “rate of consumption of 7 (kobs)” value ([3]; first-order fit) was 6.18±0.12×10^−5 s^−1. For the same compound, the “rate of formation of product 4 (kobs)” value ([3]; from 7) was 6.55±0.22×10^−5 s^−1 and the “time to complete release” value ([3]; release of 4 from 7) was at most 20 h.
For `CC(=O)Oc1c2c(c3ccccc3c1OC(C)=O)OC(C)(C)CC2` [Compound 29, 2,2-dimethyl-3,4-dihydro-2H-benzo[h]chromene-5,6-diyl diacetate], the “toxicity to MOLM-13” value [4] was “complete cell death”.
In the case of `CC1(C)CCC2=C(O1)c1ccccc1C(O)(Cc1cc(F)c(O[C@@H]3O[C@H](C(=O)O)[C@@H](O)[C@H](O)[C@H]3O)c(F)c1)C2=O` (stereo partly drawn) [Compound 37b, (2S,3S,4S,5R,6S)-6-(2,6-difluoro-4-((6-hydroxy-2,2-dimethyl-5-oxo-3,4,5,6-tetrahydro-2H-benzo[h]chromen-6-yl)methyl)phenoxy)-3,4,5-trihydroxytetrahydro-2H-pyran-2-carboxylic acid], the “elimination rate compared with plain PHB linker” value ([5]; pH 3-7 (FIG. 6)) is reported as “faster”, the “elimination rate compared with plain PHB linker 37a” value ([5]; pH 3-8.5 (FIG. 7)) is reported as “faster” and the “release rate of β-lapachone, kobs” value ([5]; pH 7, 37° C., after β-glucuronide deprotection, first experiments) is reported as 2.68e-06 s⁻¹. For the same compound, the “quinone release rate, kobs” value ([5]; pH 7, additional fragmentation experiments) was 4.2e-06 s⁻¹, the “elimination rate compared with plain PHB linker” value ([5]; pH 8-10 (FIG. 6)) was “slower” and the “elimination rate compared with plain PHB linker 37a” value ([5]; pH 9-10 (FIG. 7)) was “slower”. For the same compound, the “toxicity without the β-glucuronidase enzyme” value [6] was “no toxicity”, the IC50 [6] was 24.4 µM and the IC50 [7] was 13.4 µM. The “toxicity without the β-glucuronidase enzyme” value [7] was “no toxicity”.
In the case of `COc1cc(O[C@@H]2O[C@H](C(=O)O)[C@@H](O)[C@H](O)[C@H]2O)ccc1CC1(O)C(=O)C2=C(OC(C)(C)CC2)c2ccccc21` (single isomer, unassigned) [Compound 37d], the “release rate compared with other derivatives” value ([5]; pH 6-10 (FIG. 7)) is reported as “orders of magnitude faster release”, the “toxicity without the β-glucuronidase enzyme” value [6] is reported as “no toxicity” and the IC50 [6] is reported as 2.99 µM. For the same compound, the IC50 [7] was 0.904 µM and the “toxicity without the β-glucuronidase enzyme” value [7] was “no toxicity”.
With `O=C(Cc1ccccc1)Nc1ccc(CC2(O)C(=O)c3ccccc3-c3ccccc32)cc1` (centres unmarked) [Compound 21, 2-Phenyl-acetyl-para-aminobenzyl phenanthrene-ketol] the “formation of PhQ 4, rate kobs” value ([2]; following addition of Penicillin-G amidase to 21) was 1.15 (±0.66)×10^−5 s^−1 and the “stability without added enzyme” value ([2]; no Penicillin-G amidase) was “stable”.
